Assay results as given in patent US20080262097A1, “Formulations” (priority 2005, published 2008).
In brackets after ≈: the same amount, converted by molar mass.

Columns and labels:
S. aureus ATCC 12600-U = experiment: Disc diffusion assay (DDA); assay type: cell-based, Staphylococcus aureus; settings: zone diameter, 200 μg per disc
Description: (§1) The staphylococci and enterococci were cultured and maintained on Mueller-Hinton Medium (agar and broth) at pH 7.2; they were incubated aerobically at 37° C. for 24 hours.
(§2) A sterile paper disc was impregnated with a sample of the test compound and a minimum of 30 minutes allowed for the solvents to evaporate as far as possible. The disc was then placed on an agar plate onto which the test micro-organism had been inoculated. The plate was then incubated under the conditions described above, following which it was examined visually for signs of bacterial growth. If the test compound had antimicrobial activity, a circular zone of no growth would be obtained around the disc. The diameter of this zone of “inhibition” was measured using a ProtoCOL™ automated zone sizer (Synbiosis, Cambridge, UK). In general, a greater diameter and/or area of the zone of inhibition indicates a greater antimicrobial activity in the relevant test compound, although other factors such as test compound mobility through the agar gel may also influence the result.
(§3) The area of the zone of inhibition was calculated from the measured zone diameter (D) using the formula π(D/2)^2.

S. aureus ATCC 12601 = experiment: Disc diffusion assay (DDA); assay type: cell-based, Staphylococcus aureus; settings: zone diameter, 200 μg per disc
Description: as §1, §2, §3

S. aureus ATCC 12602 = experiment: Disc diffusion assay (DDA); assay type: cell-based, Staphylococcus aureus; settings: zone diameter, 200 μg per disc
Description: as §1, §2, §3

S. aureus ATCC 12604 = experiment: Disc diffusion assay (DDA); assay type: cell-based, Staphylococcus aureus; settings: zone diameter, 200 μg per disc
Description: as §1, §2, §3

S. aureus ATCC 12605 = experiment: Disc diffusion assay (DDA); assay type: cell-based, Staphylococcus aureus; settings: zone diameter, 200 μg per disc
Description: as §1, §2, §3

S. aureus ATCC 12606 = experiment: Disc diffusion assay (DDA); assay type: cell-based, Staphylococcus aureus; settings: zone diameter, 200 μg per disc
Description: as §1, §2, §3

S. aureus ATCC 12607 = experiment: Disc diffusion assay (DDA); assay type: cell-based, Staphylococcus aureus; settings: zone diameter, 200 μg per disc
Description: as §1, §2, §3

S. aureus ATCC 25923 = experiment: Disc diffusion assay (DDA); assay type: cell-based, Staphylococcus aureus; settings: zone diameter, 200 μg per disc
Description: as §1, §2, §3

S. aureus CPHL EMRSA 17 = experiment: Disc diffusion assay (DDA); assay type: cell-based, Staphylococcus aureus; settings: zone diameter, 200 μg per disc
Description: as §1, §2, §3

[1] = test system: S. aureus CPHL GISA HO41340156; experiment: Disc diffusion assay (DDA); assay type: cell-based, Staphylococcus aureus; settings: zone diameter, 200 μg per disc
Description: as §1, §2, §3

S. aureus CPHL VISA Mu3 = experiment: Disc diffusion assay (DDA); assay type: cell-based, Staphylococcus aureus; settings: zone diameter, 200 μg per disc
Description: as §1, §2, §3

S. aureus CPHL VISA Mu50 = experiment: Disc diffusion assay (DDA); assay type: cell-based, Staphylococcus aureus; settings: zone diameter, 200 μg per disc
Description: as §1, §2, §3

S. aureus CPHL EMRSA 15 = experiment: MIC assay; assay type: cell-based; settings: Staphylococcus aureus
Description: (§4) Other staphylococcal strains were also tested, as described in Example 5 below. These included certain antibiotic resistant staphylococci, such as the methicillin resistant S. aureus (MRSA) strains EMRSA-15 and EMRSA-16, both available from the Central Public Health Laboratory (CPHL), Colindale, UK. These strains are resistant not only to all beta-lactams but also to a number of other antibiotics in clinical use, making them a serious threat to human health. They are also responsible for the majority (>95%) of hospital-acquired MRSA infections in the UK.
as §1
(§5) This is a standard international method for quantitatively assessing the antimicrobial activity of a compound in a liquid medium. The method used a 96-well microtitre plate, capable of holding about 200 μl of liquid per well. […] The culture media were as described above for the relevant test organisms.
(§6) The wells were inoculated with a liquid suspension of freshly grown micro-organism and incubated under the conditions described above. After incubation, the microtitre plate was examined visually (with the aid of a light box) for cell pellets in and/or opaque wells, which would indicate microbial growth. The MIC value was recorded as the lowest concentration of test compound required to inhibit microbial growth, ie, the lowest concentration for which the liquid in the well remained clear.
(§7) The assays were conducted in duplicate and included both negative (culture medium only) and positive (culture medium, diluting solvent and inoculum) controls.

S. aureus CPHL EMRSA 16 = experiment: MIC assay; assay type: cell-based; settings: Staphylococcus aureus
Description: as §4, §1, §5, §6, §7

P. acnes PRP-002 = experiment: MIC assay; assay type: cell-based, Propionibacterium acnes; settings: Cutibacterium acnes, PRP002; P. acnes PRP-002 (resistance Tet/MLS)
Description: (§8) The Propionibacterium spp organisms were cultured and maintained on Wilkins-Chalgren Anaerobe Medium (agar and broth) at pH 6.0; cultures were incubated anaerobically at 37° C. for 72 hours.
as §5, §6, §7

P. acnes PRP-003 = experiment: MIC assay; assay type: cell-based, Propionibacterium acnes; settings: Cutibacterium acnes, PRP003; P. acnes PRP-003 (resistance Tet)
Description: as §8, §5, §6, §7

P. acnes PRP-007 = experiment: MIC assay; assay type: cell-based, Propionibacterium acnes; settings: Cutibacterium acnes, PRP007; P. acnes PRP-007 (resistance Clin)
Description: as §8, §5, §6, §7

P. acnes PRP-008 = experiment: MIC assay; assay type: cell-based, Propionibacterium acnes; settings: Cutibacterium acnes, PRP008; P. acnes PRP-008 (resistance Clin)
Description: as §8, §5, §6, §7

P. acnes PRP-017 = experiment: MIC assay; assay type: cell-based, Propionibacterium acnes; settings: Cutibacterium acnes, PRP017; P. acnes PRP-017 (resistance MLS)
Description: as §8, §5, §6, §7

P. acnes PRP-023 = experiment: MIC assay; assay type: cell-based, Propionibacterium acnes; settings: Cutibacterium acnes, PRP023; P. acnes PRP-023 (resistance MLSK)
Description: as §8, §5, §6, §7

P. acnes PRP-026 = experiment: MIC assay; assay type: cell-based, Propionibacterium acnes; settings: Cutibacterium acnes, PRP026; P. acnes PRP-026 (resistance MLS)
Description: as §8, §5, §6, §7

P. acnes PRP-059 = experiment: MIC assay; assay type: cell-based, Propionibacterium acnes; settings: Cutibacterium acnes, PRP059; P. acnes PRP-059 (resistance MLS)
Description: as §8, §5, §6, §7

P. acnes PRP-068 = experiment: MIC assay; assay type: cell-based, Propionibacterium acnes; settings: Cutibacterium acnes, PRP068; P. acnes PRP-068 (resistance Ery)
Description: as §8, §5, §6, §7

P. acnes PRP-102 = experiment: MIC assay; assay type: cell-based, Propionibacterium acnes; settings: Cutibacterium acnes, PRP102; P. acnes PRP-102 (resistance Tet/MLS)
Description: as §8, §5, §6, §7

| Structure (SMILES) | DDA (S. aureus ATCC 12600-U) [mm] | DDA (S. aureus ATCC 12601) [mm] | DDA (S. aureus ATCC 12602) [mm] | DDA (S. aureus ATCC 12604) [mm] | DDA (S. aureus ATCC 12605) [mm] | DDA (S. aureus ATCC 12606) [mm] | DDA (S. aureus ATCC 12607) [mm] | DDA (S. aureus ATCC 25923) [mm] | DDA (S. aureus CPHL EMRSA 17) [mm] | DDA [1] [mm] | DDA (S. aureus CPHL VISA Mu3) [mm] | DDA (S. aureus CPHL VISA Mu50) [mm] | MIC (S. aureus CPHL EMRSA 15) [µg/mL] | MIC (S. aureus CPHL EMRSA 16) [µg/mL] | MIC (P. acnes PRP-002) [µg/mL] | MIC (P. acnes PRP-003) [µg/mL] | MIC (P. acnes PRP-007) [µg/mL] | MIC (P. acnes PRP-008) [µg/mL] | MIC (P. acnes PRP-017) [µg/mL] | MIC (P. acnes PRP-023) [µg/mL] | further results |
| --- | --- | --- | --- | --- | --- | --- | --- | --- | --- | --- | --- | --- | --- | --- | --- | --- | --- | --- | --- | --- | --- |
| O=C(OOC(=O)c1ccccc1)c1ccccc1 [benzoyl peroxide] | 12.20 | 11.68 | 12.73 | 12.52 | 12.20 | 11.68 | 12.31 | 10.86 | 11.74 | 12.16 | 10.90 | 11.64 | 125 (≈ 516 µM) | 125 (≈ 516 µM) | 15.6 (≈ 64.4 µM) | 31.2 (≈ 129 µM) | 31.2 (≈ 129 µM) | 31.2 (≈ 129 µM) | 31.2 (≈ 129 µM) | 31.2 (≈ 129 µM) | MIC (P. acnes PRP-026): 15.6 µg/mL (≈ 64.4 µM); MIC (P. acnes PRP-059): 62.5 µg/mL (≈ 258 µM); MIC (P. acnes PRP-068): 62.5 µg/mL (≈ 258 µM); MIC (P. acnes PRP-102): 62.5 µg/mL (≈ 258 µM) |
| CC(C)(C)c1cc(O)ccc1O [TBHQ, t-butyl hydroquinone] | 51.24 | 57.34 | 57.66 | 55.03 | 59.55 | 53.34 | 54.50 | 44.70 | 51.05 | 75.37 | 50.73 | 50.11 | 3.9 (≈ 23.5 µM) | 3.9 (≈ 23.5 µM) | 3.9 (≈ 23.5 µM) | 7.8 (≈ 46.9 µM) | 3.9 (≈ 23.5 µM) | 3.9 (≈ 23.5 µM) | 3.9 (≈ 23.5 µM) | 3.9 (≈ 23.5 µM) | MIC (P. acnes PRP-026): 3.9 µg/mL (≈ 23.5 µM); MIC (P. acnes PRP-059): 3.9 µg/mL (≈ 23.5 µM); MIC (P. acnes PRP-068): 3.9 µg/mL (≈ 23.5 µM); MIC (P. acnes PRP-102): 7.8 µg/mL (≈ 46.9 µM) |
